According to article PMC5216056 (Nature Communications, 2017):

Columns and labels:
hCB2R [1] = target: T1, hCB2R (Homo sapiens, UniProt P34972); test: cell-based; format: cell-based; parameters: expressed in transfected cells; host or cells: Flp-In-293 (Invitrogen #R750-07), pcDNA5/FRT; conditions: AtT20, read-out: Emax ± SEM GIRK hCB2R
alpha 1A (h) = target: T2, alpha 1A (h) (Homo sapiens, UniProt P35348); test: CEREP panel; format: binding; conditions: read-out: % inhibition alpha 1A (h)
T2 construct: CEREP
T2 sequence (P35348 1-466): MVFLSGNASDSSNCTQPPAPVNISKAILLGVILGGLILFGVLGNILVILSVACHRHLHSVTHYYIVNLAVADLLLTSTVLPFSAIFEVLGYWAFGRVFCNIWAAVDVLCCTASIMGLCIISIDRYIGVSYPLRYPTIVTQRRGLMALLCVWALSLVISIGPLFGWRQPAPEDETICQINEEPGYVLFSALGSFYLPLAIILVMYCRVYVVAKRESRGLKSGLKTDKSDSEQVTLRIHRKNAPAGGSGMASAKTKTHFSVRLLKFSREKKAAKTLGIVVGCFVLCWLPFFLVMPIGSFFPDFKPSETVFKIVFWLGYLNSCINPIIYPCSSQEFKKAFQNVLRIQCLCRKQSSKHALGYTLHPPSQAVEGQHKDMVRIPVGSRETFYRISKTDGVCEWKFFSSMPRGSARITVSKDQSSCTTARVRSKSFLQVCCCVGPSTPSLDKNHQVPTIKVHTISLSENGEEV

hCB2R [2] = target: T1, hCB2R; parameters: expressed in transfected cells; host or cells: Flp-In-293 (Invitrogen #R750-07), pcDNA5/FRT; conditions: hCB2R
hCB1R [3] = target: T3, hCB1R (Homo sapiens, UniProt P21554); test: cell-based; format: cell-based
T3 construct: host or cells: CHO
T3 sequence (P21554 whole entry): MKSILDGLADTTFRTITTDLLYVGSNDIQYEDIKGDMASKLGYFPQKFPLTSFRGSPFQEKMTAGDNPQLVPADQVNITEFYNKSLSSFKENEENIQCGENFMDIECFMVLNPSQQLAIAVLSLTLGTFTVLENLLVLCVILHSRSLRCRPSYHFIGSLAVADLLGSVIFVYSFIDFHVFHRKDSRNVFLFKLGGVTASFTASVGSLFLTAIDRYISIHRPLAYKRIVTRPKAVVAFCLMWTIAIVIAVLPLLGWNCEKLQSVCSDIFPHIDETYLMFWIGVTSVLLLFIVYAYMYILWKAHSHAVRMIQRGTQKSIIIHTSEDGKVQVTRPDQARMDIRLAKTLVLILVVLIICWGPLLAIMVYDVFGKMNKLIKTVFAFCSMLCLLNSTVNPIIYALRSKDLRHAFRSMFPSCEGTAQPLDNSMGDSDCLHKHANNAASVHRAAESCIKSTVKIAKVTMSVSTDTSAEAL

A1 (h) = target: T4, A1 (h) (Homo sapiens, UniProt P30542); test: CEREP panel; format: binding; conditions: read-out: % inhibition A1 (h)
T4 construct: CEREP
T4 sequence (P30542 1-326): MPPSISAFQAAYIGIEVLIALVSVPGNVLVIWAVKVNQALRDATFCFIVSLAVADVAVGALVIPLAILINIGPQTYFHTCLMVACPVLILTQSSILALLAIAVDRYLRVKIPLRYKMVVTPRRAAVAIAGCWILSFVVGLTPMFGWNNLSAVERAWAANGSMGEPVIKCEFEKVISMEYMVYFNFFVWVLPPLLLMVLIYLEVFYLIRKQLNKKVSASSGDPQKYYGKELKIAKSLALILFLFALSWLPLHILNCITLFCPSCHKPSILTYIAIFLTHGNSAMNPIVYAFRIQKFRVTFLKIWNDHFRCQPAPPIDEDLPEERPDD

hCB2R [4] = target: T1, hCB2R; test: biochemical; format: biochemical; parameters: expressed in transfected cells; host or cells: Flp-In-293 (Invitrogen #R750-07), pcDNA5/FRT; conditions: read-out: Emax ± SEM GTPγS hCB2R
[5] = test system: AEA cellular uptake in HMC-1 cells; test: cells; format: cell-based, human; conditions: Homo sapiens, HMC1, read-out: AEA reuptake IC50 (95% CI) HMC-1 cells
[6] = test system: AEA cellular uptake in U937 cells; test: cells; format: cell-based, human
hCB1R [7] = target: T3, hCB1R; test: biochemical; format: biochemical
hGPR55 = target: T5, hGPR55 (Homo sapiens, UniProt Q9Y2T6); test: cell-based
T5 construct: host or cells: CHO-K1 (PathHunter hGPR55_bgal)
T5 sequence (Q9Y2T6 whole entry): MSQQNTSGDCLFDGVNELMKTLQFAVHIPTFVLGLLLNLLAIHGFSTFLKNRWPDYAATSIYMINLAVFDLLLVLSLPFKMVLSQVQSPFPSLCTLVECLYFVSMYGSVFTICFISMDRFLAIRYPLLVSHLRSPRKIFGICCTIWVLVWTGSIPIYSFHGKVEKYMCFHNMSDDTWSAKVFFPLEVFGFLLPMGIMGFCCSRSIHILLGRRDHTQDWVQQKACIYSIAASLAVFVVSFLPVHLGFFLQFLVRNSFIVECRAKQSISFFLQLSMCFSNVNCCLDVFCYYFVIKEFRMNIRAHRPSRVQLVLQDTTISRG

BZD (central) = format: binding; conditions: 10 µM

T1 sequence (P34972 whole entry): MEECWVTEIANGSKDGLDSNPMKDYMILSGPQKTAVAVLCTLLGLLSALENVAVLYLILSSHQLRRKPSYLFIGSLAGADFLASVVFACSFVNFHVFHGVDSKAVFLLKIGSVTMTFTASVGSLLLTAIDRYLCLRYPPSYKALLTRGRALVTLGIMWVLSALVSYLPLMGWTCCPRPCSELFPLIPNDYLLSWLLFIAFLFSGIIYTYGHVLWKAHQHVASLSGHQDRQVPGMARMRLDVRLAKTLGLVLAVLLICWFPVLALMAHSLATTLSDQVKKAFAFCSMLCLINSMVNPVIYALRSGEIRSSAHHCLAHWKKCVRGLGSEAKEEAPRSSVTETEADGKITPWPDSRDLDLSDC

CCCCCCC(C)(C)c1cc(OC)c([C@@H]2C=C(CO)[C@@H]3C[C@H]2C3(C)C)c(OC)c1 [HU308]
Emax (hCB2R [1]): 82 ± 6%
inhibition at 10 µM (alpha 1A (h)): 2%
GIRK-GTPγS bias factor (BF) (hCB2R [2]): 0.56
GIRK-GTPγS ΔΔlogR (hCB2R [2]): -0.26
GIRK-cAMP bias factor (BF) (hCB2R [2]): 4.33
GIRK-cAMP ΔΔlogR (hCB2R [2]): 0.64 ± 0.17
GTPγS-cAMP bias factor (BF) (hCB2R [2]): 7.78
GTPγS-cAMP ΔΔlogR (hCB2R [2]): 0.89 ± 0.30
LogR GIRK (hCB2R [2]): 6.281
LogR GTPγS (hCB2R [2]): 6.95
LogR cAMP (hCB2R [2]): 8.49
LogR pERK (hCB2R [2]): 7.55
LogR β-AR (hCB2R [2]): 7.72
pERK-GIRK bias factor (BF) (hCB2R [2]): 1.25
pERK-GIRK ΔΔlogR (hCB2R [2]): 0.1 ± 0.3
pERK-GTPγS bias factor (BF) (hCB2R [2]): 0.70
pERK-GTPγS ΔΔlogR (hCB2R [2]): -0.16
pERK-cAMP bias factor (BF) (hCB2R [2]): 5.42
pERK-cAMP ΔΔlogR (hCB2R [2]): 0.73 ± 0.27
β-AR-GIRK bias factor (BF) (hCB2R [2]): 6.37
β-AR-GIRK ΔΔlogR (hCB2R [2]): 0.80 ± 0.19
β-AR-GTPγS bias factor (BF) (hCB2R [2]): 3.54
β-AR-GTPγS ΔΔlogR (hCB2R [2]): 0.55 ± 0.32
β-AR-cAMP bias factor (BF) (hCB2R [2]): 27.16
β-AR-cAMP ΔΔlogR (hCB2R [2]): 1.43 ± 0.16
β-AR-pERK bias factor (BF) (hCB2R [2]): 5.08
β-AR-pERK ΔΔlogR (hCB2R [2]): 0.71 ± 0.29
ΔLogR GIRK (hCB2R [2]; reference CP55940): -1.58
ΔLogR GTPγS (hCB2R [2]; reference CP55940): -1.33
ΔLogR cAMP (hCB2R [2]; reference CP55940): -2.22
ΔLogR pERK (hCB2R [2]; reference CP55940): -1.48
ΔLogR β-AR (hCB2R [2]; reference CP55940): -0.78
RE GIRK (hCB2R [2]; relative effectiveness): 0.03
RE GTPγS (hCB2R [2]; relative effectiveness): 0.05
RE cAMP (hCB2R [2]; relative effectiveness): 0.006
RE pERK (hCB2R [2]; relative effectiveness): 0.03
RE β-AR (hCB2R [2]; relative effectiveness): 0.17
EC50 (hCB1R [3]): > 100 µM
Emax (hCB1R [3]; read-out: Emax ± SEM pERK hCB1R): 18 ± 4%
inhibition at 10 µM (A1 (h)): 5%
Emax (hCB2R [4]): 97 ± 12%
IC50 [5]: > 5 µM
IC50 ([6]; Homo sapiens, U-937, read-out: AEA reuptake IC50 (95% CI) U937 cells): 1810 nM
AEA reuptake Efficacy (% inhibition) U937 cells ([6]; from dose-response): 62%
EC50 (hCB1R [7]): > 10 µM
Emax (hCB1R [7]; read-out: Emax ± SEM GTPγS hCB1R): 17 ± 9%
EC50 (hGPR55): > 10 µM
Emax at 10 µM (hGPR55; read-out: GPR55 Emax ± SEM (%) or % effect at 10 µM): -6 ± 5%
% inhibition BZD (central) (BZD (central)): -26%
